Laboratory results: US20200276181A1, “THIENOISOQUINOLINES AND THEIR DERIVATIVES FOR TARGETING TUBULIN, CH-TOG, AURORA A KINASE, TPX2, CDK5RAP2 AND/OR ASPM” (VALORBEC, SEC, priority 2017, published 2020)

How the values were obtained:
[1] = system: A549 cells; experiment: Spindle phenotypes, fixed cells stained for γ-tubulin and ACA; assay type: cell-based, human; conditions: 300 nM for 4 hours
Description: (§1) For each condition, 20,000 cells were counted per replicate (N=3). Line graphs (right) were made to better illustrate the relative changes in the cell cycle phases for the different treatments. Bars show standard deviation. The asterisks indicate the first statistically significant change in the G0/G1 and G2/M populations determined by a two-way ANOVA with a post-hoc Tukey's multiple comparisons test using 95% confidence intervals. FIG. 2B) is a line graph showing the percentage of HCT116 (p53−/−) cells, A549 cells, HeLa cells and H1299 cells in mitosis after treatment with various concentrations of C75 for one population doubling time. All of the cell lines show an increase in the proportion of mitotic cells after treatment with 200 nM C75. The bars indicate standard deviation. […] While the mitotic spindles were not dramatically altered by C75 in HFF1 cells, they were monopolar (as shown) or fragmented in the other cell types. […] The mitotic spindles were more strongly fragmented after C75 treatment in these cells vs. the cells in FIG. 2C). FIG. 2E) are images showing fixed HFF1, HeLa, A549 and HCT 116 cells co-stained for γ-tubulin (spindle poles; white) and ACA (centromeres; light grey) 4 hours after treatment with 300 nM C87 (control) or 300 nM C75. Cartoon schematics show examples of the different spindle phenotypes, including bipolar with aligned chromosomes (top), bipolar with misaligned chromosomes (upper middle), multipolar/fragmented (lower middle), or monopolar (bottom), and the proportion of that phenotype is shown in the top right corner of each image. FIG. 2F) is a bar graph showing the proportion of the different spindle phenotypes for HFF1, HeLa, A549 and HCT 116 cells treated as in FIG. 2E) (n=1355; N=3). Bars show standard deviation. […] While mitotic spindles recovered bipolarity after removing nocodazole, they remained multipolar after removing C75. […] FIG. 2J) is a bar graph showing the proportion of cells with monopolar (black), bipolar (dark grey) or multipolar (light grey) spindles. Bars show standard deviation. FIG. 2K) is a series of time-lapse images of a live HeLa cell expressing GFP:tubulin after treatment with C75 as shown in 2G). […] Drugs were not washed out. […]
(§2) C75 was also tested for efficacy in different cancer cell lines. […] To further assess the role of C75 in disrupting spindles, HeLa cells were treated with 300 nM C75 for 4 hours and the spindle phenotypes were analyzed in more detail (FIG. 2E). […] To assess the affect of C75 on centrosomes, HeLa cells were treated with C75 or nocodazole (a drug that causes microtubule depolymerization as a control) for a short period of time (5 minutes), then the drugs were removed and the cells were analyzed for spindle phenotypes (schematic in FIG. 2G). […]

[2] = system: HeLa cells; experiment: as above; assay type: cell-based, human; conditions: 300 nM for 4 hours
Description: as §1, §2

COc1ccc(S(=O)(=O)N2Cc3ccccc3-c3sc(Br)cc32)cc1 [Compound C75]
cells with bipolar spindles with misaligned chromosomes [1]: 17% | cells with multipolar or fragmented spindles [1]: 78% | cells with bipolar spindles with misaligned chromosomes [2]: 41% | cells with multipolar or fragmented spindles [2]: 31%
